Earlier results in US20110257090A1, “SOLUTIONS FOR VOLUME THERAPY” (FRESENIUS KABI DEUTSCHLAND GMBH, priority 2008, published 2011).

Test system: cultured mammalian cells
Details: long-term studies

In the case of `O=S(=O)(O)CCN(CCO)CCO` [BES, N,N-bis(2-hydroxyethyl)-2-aminoethanesulfonic acid], the “toxicity to cultured mammalian cells” value is listed as “non-toxic”.
